19 compounds from patent US8273754B2, “Substituted 1H-pyrazolo[3,4-D]pyrimidine-6-amine compounds” (ArQule, Inc., priority 2008, dated 2012) can be followed below.

The structures appear in SMILES notation. Like-named read-outs stand apart in the source and are kept apart here. Where only a bound is given, the exact number is not on record here.

The subject of this experiment is cancer cells. In words: MTS cell growth inhibition assay (72 hours). The class given is cell-based. Summed up:
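Cells in DMEM with 1% FBS, seeded 18 h, then compound-treated 72 h at 37 °C. Viability by MTS/PMS for 4 h, formazan absorbance at 492 nm; IC50 taken as concentration giving 50% absorbance drop, activity banded by percent inhibition.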

Where [1] appears, read: Homo sapiens, DLD-1, 72 h, DLD-1 cells, read-out: DLD-1 MTS 72 hr at 10 μM.
Setting [2] is: Homo sapiens, KATO III, 72 h, KATO III cells, read-out: KATO III MTS 72 hr at 10 μM.
[3] abbreviates: Homo sapiens, MDA-MB-231, 72 h, MDA-MB-231 cells, read-out: MDA-MB-231 MTS 72 hr at 10 μM.
The mark [4] stands for this setting: Homo sapiens, NCI-H1299, 72 h, NCI-H1299 cells, read-out: NCI-H1299 MTS 72 hr at 10 μM.
Setting [5] is: PaCa-2, 72 h, PACA-2 cells, read-out: PACA-2 MTS 72 hr at 10 μM.

On to `Nc1nc(NC2Cc3ccccc3N(C(=O)c3c(F)cc(F)cc3F)C2)c2cn[nH]c2n1` (centres unmarked) [Compound 89, (3-(6-amino-1H-pyrazolo[3,4-d]pyrimidin-4-ylamino)-3,4-dihydroquinolin-1(2H)-yl)(2,4,6-trifluorophenyl)methanone], for which the inhibition at 10 µM is under 50% under setting [1]; under 50% under setting [2]; under 50% under setting [3]; under 50% under setting [4]; under 50% under setting [5].
Take `Nc1nc(NC2Cc3ccccc3N(C(=O)c3cc(Cl)cc(Cl)c3)C2)c2cn[nH]c2n1` (centres unmarked) [Compound 90, (3-(6-amino-1H-pyrazolo[3,4-d]pyrimidin-4-ylamino)-3,4-dihydroquinolin-1(2H)-yl)(3,5-dichlorophenyl)methanone]: the inhibition at 10 µM runs as follows: under setting [1], over 79%; under setting [2], over 79%; under setting [3], over 79%; under setting [4], over 79%; under setting [5], over 79%.
For the compound `Cc1c(C(=O)N2CC(Nc3nc(N)nc4[nH]ncc34)Cc3ccccc32)oc2ccccc12` (centres unmarked) [Compound 91, (3-(6-amino-1H-pyrazolo[3,4-d]pyrimidin-4-ylamino)-3,4-dihydroquinolin-1(2H)-yl)(3-methylbenzofuran-2-yl)methanone], the inhibition at 10 µM is 50 to 79% under setting [1]; over 79% under setting [2]; over 79% under setting [3]; under 50% under setting [4]; over 79% under setting [5].
Consider `Nc1nc(NC2Cc3ccccc3N(C(=O)c3cc(F)cc(F)c3F)C2)c2cn[nH]c2n1` (centres unmarked) [Compound 92, (3-(6-amino-1H-pyrazolo[3,4-d]pyrimidin-4-ylamino)-3,4-dihydroquinolin-1(2H)-yl)(2,3,5-trifluorophenyl)methanone], for which the inhibition at 10 µM reads like this: under setting [1], over 79%; under setting [2], over 79%; under setting [3], over 79%; under setting [4], 50 to 79%; under setting [5], over 79%.
With `Nc1nc(NC2Cc3ccccc3N(C(=O)COc3cccc(Cl)c3)C2)c2cn[nH]c2n1` (centres unmarked) [Compound 93, 1-(3-(6-amino-1H-pyrazolo[3,4-d]pyrimidin-4-ylamino)-3,4-dihydroquinolin-1(2H)-yl)-2-(3-chlorophenoxy)ethanone], the inhibition at 10 µM runs as follows: under setting [1], under 50%; under setting [2], under 50%; under setting [3], under 50%; under setting [4], under 50%; under setting [5], under 50%.
For the compound `CC(C)(C)CC(=O)N1CC(Nc2nc(N)nc3[nH]ncc23)Cc2ccccc21` (centres unmarked) [Compound 94, 1-(3-(6-amino-1H-pyrazolo[3,4-d]pyrimidin-4-ylamino)-3,4-dihydroquinolin-1(2H)-yl)-3,3-dimethylbutan-1-one], the inhibition at 10 µM is, setting by setting: under setting [1], under 50%; under setting [2], under 50%; under setting [3], under 50%; under setting [4], under 50%; under setting [5], under 50%.
Regarding `COc1ccc(CC(=O)N2CC(Nc3nc(N)nc4[nH]ncc34)Cc3ccccc32)cc1OC` (centres unmarked) [Compound 95, 1-(3-(6-amino-1H-pyrazolo[3,4-d]pyrimidin-4-ylamino)-3,4-dihydroquinolin-1(2H)-yl)-2-(3,4-dimethoxyphenyl)ethanone], the inhibition at 10 µM was under 50% under setting [1]; under 50% under setting [2]; under 50% under setting [3]; under 50% under setting [4]; under 50% under setting [5].
With `CC1(C(=O)N2CC(Nc3nc(N)nc4[nH]ncc34)Cc3ccccc32)CCCCC1` (centres unmarked) [Compound 96, (3-(6-amino-1H-pyrazolo[3,4-d]pyrimidin-4-ylamino)-3,4-dihydroquinolin-1(2H)-yl)(1-methylcyclohexyl)methanone], the inhibition at 10 µM reads like this: under setting [1], under 50%; under setting [2], under 50%; under setting [3], under 50%; under setting [4], under 50%; under setting [5], under 50%.
Regarding `CC(C)(C)c1ccc(OCC(=O)N2CC(Nc3nc(N)nc4[nH]ncc34)Cc3ccccc32)cc1` (centres unmarked) [Compound 97, 1-(3-(6-amino-1H-pyrazolo[3,4-d]pyrimidin-4-ylamino)-3,4-dihydroquinolin-1(2H)-yl)-2-(4-tert-butylphenoxy)ethanone], the inhibition at 10 µM reads like this: under setting [1], 50 to 79%; under setting [2], 50 to 79%; under setting [3], 50 to 79%; under setting [4], under 50%; under setting [5], under 50%.
In the case of `Nc1nc(NC2Cc3ccccc3N(C(=O)Cc3cccc4ccccc34)C2)c2cn[nH]c2n1` (centres unmarked) [Compound 98, 1-(3-(6-amino-1H-pyrazolo[3,4-d]pyrimidin-4-ylamino)-3,4-dihydroquinolin-1(2H)-yl)-2-(naphthalen-1-yl)ethanone], the inhibition at 10 µM by setting is: under setting [1], under 50%; under setting [2], under 50%; under setting [3], under 50%; under setting [4], under 50%; under setting [5], under 50%.
In the case of `Nc1nc(NC2Cc3ccccc3N(C(=O)c3c(F)cccc3Cl)C2)c2cn[nH]c2n1` (centres unmarked) [Compound 99, (3-(6-amino-1H-pyrazolo[3,4-d]pyrimidin-4-ylamino)-3,4-dihydroquinolin-1(2H)-yl)(2-chloro-6-fluorophenyl)methanone], the inhibition at 10 µM by setting is: under setting [1], under 50%; under setting [2], under 50%; under setting [3], under 50%; under setting [4], under 50%; under setting [5], under 50%.
For the compound `Nc1nc(NC2Cc3ccccc3N(C(=O)c3ccc(C(F)(F)F)c(F)c3)C2)c2cn[nH]c2n1` (centres unmarked) [Compound 100, (3-(6-amino-1H-pyrazolo[3,4-d]pyrimidin-4-ylamino)-3,4-dihydroquinolin-1(2H)-yl)(3-fluoro-4-(trifluoromethyl)phenyl)methanone], the inhibition at 10 µM under setting [1] is under 50%; the inhibition at 10 µM under setting [2] is under 50%; the inhibition at 10 µM under setting [3] was under 50%; the inhibition at 10 µM under setting [4] is under 50%; the inhibition at 10 µM under setting [5] is under 50%.
As for `COc1cccc(CC(=O)N2CC(Nc3nc(N)nc4[nH]ncc34)Cc3ccccc32)c1` (centres unmarked) [Compound 101, 1-(3-(6-amino-1H-pyrazolo[3,4-d]pyrimidin-4-ylamino)-3,4-dihydroquinolin-1(2H)-yl)-2-(3-methoxyphenyl)ethanone], the inhibition at 10 µM runs as follows: under setting [1], over 79%; under setting [2], under 50%; under setting [3], 50 to 79%; under setting [4], under 50%; under setting [5], under 50%.
Turning to `Nc1nc(NC2Cc3ccccc3N(C(=O)CCc3ccccc3)C2)c2cn[nH]c2n1` (centres unmarked) [Compound 102, 1-(3-(6-amino-1H-pyrazolo[3,4-d]pyrimidin-4-ylamino)-3,4-dihydroquinolin-1(2H)-yl)-3-phenylpropan-1-one], the inhibition at 10 µM by setting is: under setting [1], under 50%; under setting [2], under 50%; under setting [3], under 50%; under setting [4], under 50%; under setting [5], under 50%.
Regarding `Nc1nc(NC2Cc3ccccc3N(C(=O)C3CCC3)C2)c2cn[nH]c2n1` (centres unmarked) [Compound 103, (3-(6-amino-1H-pyrazolo[3,4-d]pyrimidin-4-ylamino)-3,4-dihydroquinolin-1(2H)-yl)(cyclobutyl)methanone], the inhibition at 10 µM by setting is: under setting [1], over 79%; under setting [2], over 79%; under setting [3], over 79%; under setting [4], over 79%; under setting [5], over 79%.
As for `Nc1nc(NC2Cc3ccccc3N(C(=O)c3c(F)ccc(Cl)c3F)C2)c2cn[nH]c2n1` (centres unmarked) [Compound 104, (3-(6-amino-1H-pyrazolo[3,4-d]pyrimidin-4-ylamino)-3,4-dihydroquinolin-1(2H)-yl)(3-chloro-2,6-difluorophenyl)methanone], the inhibition at 10 µM by setting is: under setting [1], under 50%; under setting [2], under 50%; under setting [3], under 50%; under setting [4], under 50%; under setting [5], under 50%.
For the compound `COc1ccc(OC)c(CC(=O)N2CC(Nc3nc(N)nc4[nH]ncc34)Cc3ccccc32)c1` (centres unmarked) [Compound 105, 1-(3-(6-amino-1H-pyrazolo[3,4-d]pyrimidin-4-ylamino)-3,4-dihydroquinolin-1(2H)-yl)-2-(2,5-dimethoxyphenyl)ethanone], the inhibition at 10 µM was under 50% under setting [1]; under 50% under setting [2]; under 50% under setting [3]; under 50% under setting [4]; under 50% under setting [5].
As to `Nc1nc(NC2Cc3ccccc3N(C(=O)NCCc3cccc(Cl)c3)C2)c2cn[nH]c2n1` (centres unmarked) [Compound 106, 3-(6-amino-1H-pyrazolo[3,4-d]pyrimidin-4-ylamino)-N-(3-chlorophenethyl)-3,4-dihydroquinoline-1(2H)-carboxamide], the inhibition at 10 µM runs as follows: under setting [1], under 50%; under setting [2], under 50%; under setting [3], under 50%; under setting [4], under 50%; under setting [5], under 50%.
Turning to `CCc1ccccc1NC(=O)N1CC(Nc2nc(N)nc3[nH]ncc23)Cc2ccccc21` (centres unmarked) [Compound 107, 3-(6-amino-1H-pyrazolo[3,4-d]pyrimidin-4-ylamino)-N-(2-ethylphenyl)-3,4-dihydroquinoline-1(2H)-carboxamide], the inhibition at 10 µM was under 50% under setting [1]; under 50% under setting [2]; under 50% under setting [3]; under 50% under setting [4]; under 50% under setting [5].
